Source: EP4610271B1, “SELF-ASSEMBLING POLYPEPTIDE AND USE THEREOF” (Success Bio-Tech Co., Ltd., priority 2023, dated 2026)

Assays:
[1] = State of peptide solution (solution or gel) on pH adjustment with NaHCO3; assay type: physicochemical; settings: for State of Peptide Under Different pH Conditions: gel: pH at which the peptide is a gel; for State of Peptide Under Different pH Conditions: solution: pH at which the peptide is a solution; for pH needed to stay in solution: typical value, concentration not stated (background, inventor's study)
Description: (§1) Unless otherwise specified, the solutions in this example refer to aqueous solutions prepared using purified water or sterile water as the solvent. Based on the AC-PRVDVRVDP-NH2 provided previously, the peptides AC-KLNLKLNLNL-NH2, AC-PRVDVRVKVRVDP-NH2, and AC-RADMSRADMS-NH2 were screened. The above-mentioned peptides were formulated into a 1 mL 2.5% w/v solution, to which 100 µL of 10-fold concentration PBS buffer was added and thoroughly mixed to achieve a final solution of approximately 1-fold PBS. […] Based on this, a similar sequence with liquid-solid phase transition capability, AC-PRVDVRVRVRVDP-NH2 (PRRVDP13), was further designed. At a concentration of 1% w/v, the pH of the two peptide solutions could be pre-adjusted to a certain level using a dropwise addition of 1% w/v NaHCO3 and shaking, without the peptide solution turning into a gel for several hours. However, at a concentration of 2% w/v, when the pH increased to around 3 using a dropwise addition of 1% w/v NaHCO3 and shaking, the peptide solution quickly turned into a gel. The classical sequence RADA16 and the original sequence PRVDP9 needed to be maintained under acidic conditions even at a lower concentration of 1% w/v to keep them in solution state. Otherwise, the solution would turn into a gel, and the color would turn white as the pH increased.

[2] = Neutralisation of peptide solution by mixing with DMEM medium, pH measured; assay type: physicochemical; settings: for neutralization of acidity by mixing with DMEM medium: 2.5% w/v peptide solution
Description: As mentioned above, peptide solutions with relatively high concentrations (over 2% w/v) cannot be pre-adjusted to neutral pH before mixing with the cell suspension, and the acidity may be harmful to the cells. […] Therefore, despite the acidic nature of the 2.5% concentration solution, PRRVDP13 may still be used as a cell culture scaffold. The experimental methods are as follows. In a centrifuge tube, 1.5 mL of a 2.5% w/v self-assembling peptide solution was mixed with 1.5 mL of DMEM medium, and after gelation, additional medium was added to make a total volume of […], with a final peptide-to-medium ratio of 1:3. Alternatively, 1.5 mL of a 2.5% self-assembling peptide solution was mixed with 1.5 mL of DMEM medium to achieve a peptide-to-DMEM medium ratio of 1:1. The pH value of each group was then measured.

[3] = Screening of dissolution and gel formation on mixing with PBS or DMEM; assay type: physicochemical; settings: 2.5% w/v solution mixed with 10-fold PBS (final about 1-fold) or equal volume of DMEM
Description: as §1

L929 cells [4] = experiment: 3D cell culture in peptide gel, microscopy and Calcein-AM/PI staining; assay type: cell-based; settings: L929 cell suspension mixed directly with peptide solution, about 48 hours, FIG. 6
Description: One potential application of ISAPs is to use them as scaffolds for supporting 3D cell culture. To validate their suitability as a 3D cell culture scaffold, L929 cells (purchased from the Kunming Cell Bank of the Chinese Academy of Sciences) that had been cultured for 48-72 hours and were in a vigorous growth phase were digested and then mixed with serum-containing DMEM medium for cell counting. The cell suspension was prepared at a concentration of 1×10^5 cells/mL with serum-containing DMEM medium. The cell suspension was mixed with the peptide in a specific ratio (60 µL:60 µL) and added to a 96-well culture plate. After gelation, 120 µL of serum-containing DMEM medium was added for cell culture. In this example, the ISAP solution was mixed with the cell suspension or cell culture medium to study their biocompatibility.
To test the biocompatibility of ISAPs, 60 µL of a 2.5% w/v peptide solution was mixed with an equal volume of DMEM medium in a cell culture plate to form a gel. Then, 120 µL of the aforementioned 1×10^5 cells/mL L929 cell suspension was loaded onto the pre-formed gel. 4 and 5. […] After approximately 48 hours of incubation in a cell incubator at an atmosphere of 5% CO2, cells were observed directly using a microscope or observed using a fluorescence microscope following staining with Calcein-AM and PI (Beyotime, C2015S) according to the manufacturer's instructions.

L929 cells [5] = experiment: Cell proliferation on pre-formed peptide gel (CCK-8 assay); assay type: cell-based; settings: gel of 2.5% w/v peptide solution and equal volume of DMEM, about 48 hours, CCK-8, FIGs. 4 and 5
Description: To test the biocompatibility of ISAPs, 60 µL of a 2.5% w/v peptide solution was mixed with an equal volume of DMEM medium in a cell culture plate to form a gel. Then, 120 µL of the aforementioned 1×10^5 cells/mL L929 cell suspension was loaded onto the pre-formed gel. […]. […] The cell proliferation assay was performed after culturing the cells in a cell incubator at an atmosphere of 5% CO2 for approximately 48 hours using a CCK-8 assay kit (Beyotime, C0038). For the PRRVDP13 peptide, the cell suspension was directly mixed with the peptide solution, and after the liquid-to-solid phase transition, cells were evenly distributed within the gel. The methods are as follows. 60 µL of the aforementioned L929 cell suspension of 1×10^5 cells/mL and 60 µL of PRRVDP13 peptide were added to a 96-well culture plate. After gelation, 120 µL of culture medium was added for cell culture. After approximately 48 hours of incubation in a cell incubator at an atmosphere of 5% CO2, cells were observed directly using a microscope or observed using a fluorescence microscope following staining with Calcein-AM and PI (Beyotime, C2015S) according to the manufacturer's instructions.

[6] = Rheometer measurement of gel storage modulus G' and loss modulus G"; assay type: physicochemical; settings: 2.5% w/v gel triggered by PBS, compared to RADA16 and PRVDP9, FIGs. 7A-7C
Description: (§2) The experimental methods are as follows. Peptide was prepared as a 1 mL solution with a concentration of 2.5% w/v. 100 µL of a 10-fold concentration PBS buffer was added and thoroughly mixed to make the final solution as approximately 1-fold PBS to trigger gelation. The gel strength, which is related to hemostatic ability, is usually represented by the storage modulus G'. […]. The experimental methods are as follows. 3 mL of a 2.5% w/v solution of each peptide was prepared using water for injection and then 600 µL of a 5-fold concentration PBS buffer was added in to trigger gel formation. A suitable amount of gel was placed on the rheometer testing stage, with the setting of the stress of the rheometer at 1 Pa, and the scanning frequency range from 0.1 to 10 Hz to measure the storage modulus G' and loss modulus G" of the gel. To measure the viscosity of the peptide solutions, each peptide was prepared into a 2.5% w/v solution using water for injection, and a creep scan was performed using a rheometer at shear rates ranging from 0.001S^-1 to 1000S^-1 to obtain viscosity data for each peptide solution, as shown in FIGs. 7D-7F.

New Zealand rabbits = experiment: Liver wound hemostasis model; assay type: in vivo
Source text: The animal (New Zealand rabbits) was anesthetized by 2% sodium pentobarbital via ear vein injection. The animal was then fixed in a supine position on the operating table. The abdominal fur was shaved, and the area was sterilized. A standard midline incision was made, and the left lobe of liver was exposed by dissecting the liver. A sterile gauze was placed beneath the liver. A 1.0 cm long and 0.3 cm deep wound was created on the liver lobe, and the wound was wiped with gauze. The test sample (approximately 1 mL) was injected deeply onto the wound until the entire wound area was covered. The hemostatic effect was observed and the hemostasis time was recorded.

[7] = Liquid-to-solid phase transition triggered by PBS; assay type: physicochemical; settings: 2.5% w/v solution, about 1-fold PBS, FIG. 8
Description: as §2

Compound | State of Peptide Under Different pH Conditions: gel ([1]; concentration 1% w/v) | State of Peptide Under Different pH Conditions: solution ([1]; concentration 1% w/v) | pH needed to stay in solution [1] | neutralization of acidity by mixing with DMEM medium [2] | dissolution and gel formation [3] | State of Peptide Under Different pH Conditions: gel ([1]; concentration 2% w/v) | State of Peptide Under Different pH Conditions: solution ([1]; concentration 2% w/v) | cell viability within the gel (L929 cells [4]) | cell proliferation on the peptide gel (L929 cells [5]) | mechanical properties (storage modulus G') [6] | time to complete hemostasis (New Zealand rabbits; 1.25% w/v peptide solution with 1 mg/mL NaHCO3, about 1 mL on rabbit liver wound) [s] | time to complete hemostasis (New Zealand rabbits; 2.5% w/v peptide solution, about 1 mL on rabbit liver wound) [s] | bleeding after rinsing off the hydrogel (New Zealand rabbits; surface hydrogel rinsed off with normal saline after 2 minutes of hemostasis) | pH of the peptide-DMEM mixture ([2]; 2.5% w/v, same volume ratio (1:1 or 1:3), compared with PRVDP9 and RADA16, FIG. 3) | liquid-to-solid phase transition ability [7]
CC(=O)N[C@@H](CCCNC(=N)N)C(=O)N[C@@H](C)C(=O)N[C@@H](CC(=O)O)C(=O)N[C@@H](C)C(=O)N[C@@H](CCCNC(=N)N)C(=O)N[C@@H](C)C(=O)N[C@@H](CC(=O)O)C(=O)N[C@@H](C)C(=O)N[C@@H](CCCNC(=N)N)C(=O)N[C@@H](C)C(=O)N[C@@H](CC(=O)O)C(=O)N[C@@H](C)C(=O)N[C@@H](CCCNC(=N)N)C(=O)N[C@@H](C)C(=O)N[C@@H](CC(=O)O)C(=O)N[C@@H](C)C(N)=O [RADA16, AC-RADARADARADARADA-NH2, reference compound] | pH ≥ 3.40, gel | pH < 3.40, solution | < 3 | relatively more difficult to neutralize | – | – | – | – | – | – | – | – | – | – | –
Ac-PRVDVRVDP-NH2 [PRVDP9, AC-PRVDVRVDP-NH2, reference compound] | pH ≥ 3.50, gel | pH < 3.50, solution | < 3 | relatively more difficult to neutralize | – | – | – | – | – | – | – | – | – | – | –
Ac-PRVDVRVKVRVDP-NH2 [AC-PRVDVRVKVRVDP-NH2] | pH ≥ 4.05, gel | pH < 4.05, solution | – | – | dissolved easily and formed a good gel | pH ≥ 3.20, gel | pH < 3.20, solution | – | – | – | – | – | – | – | –
Ac-PRVDVRVRVRVDP-NH2 [PRRVDP13, AC-PRVDVRVRVRVDP-NH2] | pH ≥ 6.29, gel | pH < 6.29, solution | – | easily neutralized | – | pH ≥ 3.25, gel | pH < 3.25, solution | majority of cells were viable | good proliferation | better mechanical properties | ≤ 50 | ≤ 50 | no new bleeding appeared | significantly higher | good liquid-to-solid phase transition ability
